Laboratory results published in the NIST ThermoML archive (doi:10.1016/j.jct.2015.12.014).

Assays:
[1] = Crystal; for vapor or sublimation pressure: Calculated from knudsen effusion weight loss
[2] = molar heat capacity at constant pressure; settings: 101.33 kPa, Crystal, Small sample (50 mg) DSC
[3] = Molar enthalpy of transition or fusion; settings: Crystal; DSC

O=C(O)/C=C\c1ccccc1 [cis-cinnamic acid]
Settings | Normal melting temperature [°C] | molar heat capacity at constant pressure [J/K/mol] | vapor or sublimation pressure [kPa]
[1], 306.21 K | – | – | 8.16e-05
[1], 308.18 K | – | – | 0.0001123
[1], 310.2 K | – | – | 0.0001346
[1], 312.15 K | – | – | 0.0001819
[1], 314.14 K | – | – | 0.0002297
[1], 316.16 K | – | – | 0.0002837
[1], 318.1 K | – | – | 0.0003808
[1], 320.19 K | – | – | 0.0004592
[1], 322.05 K | – | – | 0.000572
[1], 324.08 K | – | – | 0.0007647
[1], 326.1 K | – | – | 0.0009201
[1], DTA | 67.0 | – | –
[2], 257.15 K | – | 155 | –
[2], 258.15 K | – | 155.9 | –
[2], 259.15 K | – | 156 | –
[2], 260.15 K | – | 156.5 | –
[2], 261.15 K | – | 156.9 | –
[2], 262.15 K | – | 157.5 | –
[2], 263.15 K | – | 158.1 | –
[2], 264.15 K | – | 158.7 | –
[2], 265.15 K | – | 159.1 | –
[2], 266.15 K | – | 159.7 | –
[2], 267.15 K | – | 160.2 | –
[2], 268.15 K | – | 160.8 | –
[2], 269.15 K | – | 161.2 | –
[2], 270.15 K | – | 161.6 | –
[2], 271.15 K | – | 162.2 | –
[2], 272.15 K | – | 163 | –
[2], 273.15 K | – | 163.3 | –
[2], 274.15 K | – | 163.9 | –
[2], 275.15 K | – | 164.3 | –
[2], 276.15 K | – | 165.3 | –
[2], 277.15 K | – | 165.8 | –
[2], 278.15 K | – | 166.2 | –
[2], 279.15 K | – | 166.7 | –
[2], 280.15 K | – | 167.3 | –
[2], 281.15 K | – | 167.9 | –
[2], 282.15 K | – | 168.5 | –
[2], 283.15 K | – | 169.1 | –
[2], 284.15 K | – | 169.5 | –
[2], 285.15 K | – | 170.4 | –
[2], 286.15 K | – | 170.8 | –
[2], 287.15 K | – | 171.4 | –
[2], 288.15 K | – | 171.9 | –
[2], 289.15 K | – | 172.6 | –
[2], 290.15 K | – | 173.2 | –
[2], 291.15 K | – | 173.9 | –
[2], 292.15 K | – | 174.5 | –
[2], 293.15 K | – | 175.1 | –
[2], 294.15 K | – | 175.9 | –
[2], 295.15 K | – | 176.5 | –
[2], 296.15 K | – | 176.9 | –
[2], 297.15 K | – | 177.6 | –
[2], 298.15 K | – | 178.1 | –
[2], 299.15 K | – | 178.7 | –
[2], 300.15 K | – | 179.1 | –
[2], 301.15 K | – | 179.9 | –
[2], 302.15 K | – | 180.6 | –
[2], 303.15 K | – | 181.3 | –
[2], 304.15 K | – | 182.1 | –
[2], 305.15 K | – | 183 | –
[2], 306.15 K | – | 183.7 | –
[2], 307.15 K | – | 184.6 | –
[2], 308.15 K | – | 185.3 | –
[2], 309.15 K | – | 185.9 | –
[2], 310.15 K | – | 186.8 | –
[2], 311.15 K | – | 187.9 | –
[2], 312.15 K | – | 188.6 | –
[2], 313.15 K | – | 189.3 | –
[2], 314.15 K | – | 190.2 | –
[2], 315.15 K | – | 191.3 | –
[2], 316.15 K | – | 192.3 | –
[2], 317.15 K | – | 193.5 | –
[2], 318.15 K | – | 194.5 | –
[2], 319.15 K | – | 195.9 | –
[2], 320.15 K | – | 197.5 | –
[2], 321.15 K | – | 199.1 | –
[2], 322.15 K | – | 201.1 | –

Settings | Molar enthalpy of transition or fusion [kcal/mol]
[3] | 4.02
